Experimental data from patent US20260374756A1, “HETEROCYCLIC COMPOUNDS AS INHIBITORS OF MONOACYLGLYCEROL LIPASE (MAGL)” (Hoffmann-La Roche Inc., priority 2022, published 2026).

target: T1, hMAGL (Homo sapiens, UniProt Q99685); experiment: 2-AG assay: MAGL inhibition, hydrolysis of 2-arachidonoylglycerol to arachidonic acid followed by mass spectrometry; assay type: biochemical
T1 sequence (Q99685 1-303): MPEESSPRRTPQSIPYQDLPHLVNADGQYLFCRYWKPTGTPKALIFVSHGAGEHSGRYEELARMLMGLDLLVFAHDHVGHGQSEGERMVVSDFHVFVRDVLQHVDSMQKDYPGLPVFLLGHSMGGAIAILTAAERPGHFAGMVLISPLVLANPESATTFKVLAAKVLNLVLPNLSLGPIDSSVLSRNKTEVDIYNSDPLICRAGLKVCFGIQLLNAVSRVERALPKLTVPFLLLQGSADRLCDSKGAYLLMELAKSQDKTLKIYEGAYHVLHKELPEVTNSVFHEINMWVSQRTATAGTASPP
Method: Compounds of formula (I) were profiled for MAGL inhibitory activity by determining the enzymatic activity by following the hydrolysis of the natural substrate 2-arachidonoylglycerol (2-AG) resulting in arachidonic acid, which can be followed by mass spectrometry. This assay is hereinafter abbreviated “2-AG assay”. The 2-AG assay was carried out in 384 well polypropylene assay plates. […] Compound dilutions were added to MAGL protein in assay buffer (50 mM TRIS, 1 mM EDTA, 0.01% (v/v) Tween-20, 2.5% (v/v) DMSO). After shaking, the plate was incubated for 15 min at RT. To start the reaction, 2-arachidonoylglycerol in assay buffer was added. The final concentrations in the assay was […] for MAGL protein and 8 μM 2-arachidonoylglyerol. After shaking and 30 min incubation at RT, the reaction was quenched by the addition of two assay volumes of acetonitrile containing 4 μM of d8-arachidonic acid. The amount of arachidonic acid formed was traced by an online SPE system (Agilent Rapidfire) coupled to a triple quadrupole mass spectrometer. A C18 SPE cartridge (Agilent G9205A) was used in an acetonitrile/water liquid setup. […] The activity of the compounds was calculated based on the ratio of intensities [arachidonic acid/d8-arachidonic acid].

IC50 [nM] | SMILES
0.18 | O=C(N1CC2(CC(Cc3nc(C(F)(F)F)ns3)C2)C1)N1CC2(CC(n3cnc(C4CC4)n3)C2)C1 [Example 16]
149 | O=C(N1CC2(CC(n3cnc(C(F)(F)F)n3)C2)C1)N1CC2(CN(Cc3nc(CC(F)(F)F)no3)C2)C1 [Example 206]
133 | O=C(N1CC2(CC(n3cnc(C(F)(F)F)n3)C2)C1)N1CC2(CN(Cc3cnn(C(F)(F)F)c3)C2)C1 [Example 181, [6-[[1-(trifluoromethyl)pyrazol-4-yl]methyl]-2,6-diazaspiro[3.3]heptan-2-yl]-[6-[3-(trifluoromethyl)-1,2,4-triazol-1-yl]-2-azaspiro[3.3]heptan-2-yl]methanone]
15 | O=C(N1CC2(CC(n3cnc(C(F)(F)F)n3)C2)C1)N1CC2(CN(Cc3nc(C4(C(F)(F)F)CC4)no3)C2)C1 [Example 328, [6-[[3-[1-(trifluoromethyl)cyclopropyl]-1,2,4-oxadiazol-5-yl]methyl]-2,6-diazaspiro[3.3]heptan-2-yl]-[6-[3-(trifluoromethyl)-1,2,4-triazol-1-yl]-2-azaspiro[3.3]heptan-2-yl]methanone]
1.99 | O=C(N1CC2(CC(Cc3cn[nH]c3C(F)(F)F)C2)C1)N1CC2(CC(n3cnc(C(F)F)n3)C2)C1 [Example 346, [6-[3-(difluoromethyl)-1,2,4-triazol-1-yl]-2-azaspiro[3.3]heptan-2-yl]-[6-[[5-(trifluoromethyl)-1H-pyrazol-4-yl]methyl]-2-azaspiro[3.3]heptan-2-yl]methanone]
0.63 | Cn1ncc(C(F)(F)F)c1CN1CC2(C1)CN(C(=O)N1CC3(CC(c4cc(C5CC5)n[nH]4)C3)C1)C2 [Example 157, [6-(3-cyclopropyl-1H-pyrazol-5-yl)-2-azaspiro[3.3]heptan-2-yl]-[6-[[2-methyl-4-(trifluoromethyl)pyrazol-3-yl]methyl]-2,6-diazaspiro[3.3]heptan-2-yl]methanone]
10.8 | O=C(N1CC2(CC(Oc3cnn(CC(F)(F)F)c3)C2)C1)N1CC2(CC(n3cnc(C4CC4)n3)C2)C1 [Example 249, [6-(3-cyclopropyl-1,2,4-triazol-1-yl)-2-azaspiro[3.3]heptan-2-yl]-[6-[1-(2,2,2-trifluoroethyl)pyrazol-4-yl]oxy-2-azaspiro[3.3]heptan-2-yl]methanone]
2.12 | O=C(N1CC2(CC(c3cc(C4CC4)n[nH]3)C2)C1)N1CC2(CN(Cc3cc(C(F)(F)F)ns3)C2)C1 [Example 151, [6-(3-cyclopropyl-1H-pyrazol-5-yl)-2-azaspiro[3.3]heptan-2-yl]-[6-[[3-(trifluoromethyl)isothiazol-5-yl]methyl]-2,6-diazaspiro[3.3]heptan-2-yl]methanone]
113 | O=C(N1CC2(CCC(Cc3nnc(C(F)(F)F)[nH]3)CC2)C1)N1CC2(CC(n3cnc(C(F)F)n3)C2)C1 [Example 315, [6-[3-(difluoromethyl)-1,2,4-triazol-1-yl]-2-azaspiro[3.3]heptan-2-yl]-[7-[[5-(trifluoromethyl)-4H-1,2,4-triazol-3-yl]methyl]-2-azaspiro[3.5]nonan-2-yl]methanone]
2.12 | Cn1ncc(C(F)(F)F)c1CN1CCC2(CC1)CN(C(=O)N1CC3(CC(n4cnc(C5(O)CC5)n4)C3)C1)C2 [Example 67, [6-[3-(1-hydroxycyclopropyl)-1,2,4-triazol-1-yl]-2-azaspiro[3.3]heptan-2-yl]-[7-[[2-methyl-4-(trifluoromethyl)pyrazol-3-yl]methyl]-2,7-diazaspiro[3.5]nonan-2-yl]methanone]
6.75 | O=C(N1CC2(CC(Cn3cc(CC(F)(F)F)cn3)C2)C1)N1CC2(CC(n3cnc(C4(O)CC4)n3)C2)C1 [Example 144, [6-[3-(1-hydroxycyclopropyl)-1,2,4-triazol-1-yl]-2-azaspiro[3.3]heptan-2-yl]-[6-[[4-(2,2,2-trifluoroethyl)pyrazol-1-yl]methyl]-2-azaspiro[3.3]heptan-2-yl]methanone]
0.12 | O=C(N1CC2(CC(Cc3cc(C(F)(F)F)n[nH]3)C2)C1)N1CC2(CC(n3cnc(C4CC4)n3)C2)C1 [Example 300, [6-(3-cyclopropyl-1,2,4-triazol-1-yl)-2-azaspiro[3.3]heptan-2-yl]-[6-[[3-(trifluoromethyl)-1H-pyrazol-5-yl]methyl]-2-azaspiro[3.3]heptan-2-yl]methanone]
20 | O=C(N1CC2(CC(c3cc(C4CC4)n[nH]3)C2)C1)N1CC2(CN(Cc3nc(C(F)(F)F)co3)C2)C1 [Example 215, [6-(3-cyclopropyl-1H-pyrazol-5-yl)-2-azaspiro[3.3]heptan-2-yl]-[6-[[4-(trifluoromethyl)oxazol-2-yl]methyl]-2,6-diazaspiro[3.3]heptan-2-yl]methanone]
3.7 | Cc1cc(C(F)(F)F)n(CC2CC3(C2)CN(C(=O)N2CC4(CC(n5cnc(C(F)(F)F)n5)C4)C2)C3)n1 [Example 71, [6-[[3-methyl-5-(trifluoromethyl)pyrazol-1-yl]methyl]-2-azaspiro[3.3]heptan-2-yl]-[6-[3-(trifluoromethyl)-1,2,4-triazol-1-yl]-2-azaspiro[3.3]heptan-2-yl]methanone]
25.8 | O=C(N1CC2(CC(Cc3nc(CC(F)(F)F)n[nH]3)C2)C1)N1CC2(CC(n3cnc(C(F)(F)F)n3)C2)C1 [Example 204, [6-[[3-(2,2,2-trifluoroethyl)-1H-1,2,4-triazol-5-yl]methyl]-2-azaspiro[3.3]heptan-2-yl]-[6-[3-(trifluoromethyl)-1,2,4-triazol-1-yl]-2-azaspiro[3.3]heptan-2-yl]methanone]
0.1 | O=C(N1CC2(CC(Cc3nsc(C(F)(F)F)n3)C2)C1)N1CC2(CC(n3cnc(C4CC4)n3)C2)C1 [Example 21, [6-(3-cyclopropyl-1,2,4-triazol-1-yl)-2-azaspiro[3.3]heptan-2-yl]-[6-[[5-(trifluoromethyl)-1,2,4-thiadiazol-3-yl]methyl]-2-azaspiro[3.3]heptan-2-yl]methanone]
730 | O=C(N1CC2(CC(n3cnc(C(F)(F)F)n3)C2)C1)N1CC2(CN(Cc3nnn(CC(F)(F)F)n3)C2)C1 [Example 193, [6-[[2-(2,2,2-trifluoroethyl)tetrazol-5-yl]methyl]-2,6-diazaspiro[3.3]heptan-2-yl]-[6-[3-(trifluoromethyl)-1,2,4-triazol-1-yl]-2-azaspiro[3.3]heptan-2-yl]methanone]
145 | O=C(N1CC2(CC(n3cnc(C(F)(F)F)n3)C2)C1)N1CC2(CN(Cc3nnc(C(F)(F)F)s3)C2)C1 [Example 82, [6-[[5-(trifluoromethyl)-1,3,4-thiadiazol-2-yl]methyl]-2,6-diazaspiro[3.3]heptan-2-yl]-[6-[3-(trifluoromethyl)-1,2,4-triazol-1-yl]-2-azaspiro[3.3]heptan-2-yl]methanone]
135 | CCc1nsc(CN2CC3(C2)CN(C(=O)N2CC4(CC(n5cnc(C6CC6)n5)C4)C2)C3)n1 [Example 287, [6-(3-cyclopropyl-1,2,4-triazol-1-yl)-2-azaspiro[3.3]heptan-2-yl]-[6-[(3-ethyl-1,2,4-thiadiazol-5-yl)methyl]-2,6-diazaspiro[3.3]heptan-2-yl]methanone]
23.1 | O=C(N1CC2(CC(n3cnc(C(F)(F)F)n3)C2)C1)N1CC2(CN(Cc3nc(C4CC4)ns3)C2)C1 [Example 43, [6-[(3-cyclopropyl-1,2,4-thiadiazol-5-yl)methyl]-2,6-diazaspiro[3.3]heptan-2-yl]-[6-[3-(trifluoromethyl)-1,2,4-triazol-1-yl]-2-azaspiro[3.3]heptan-2-yl]methanone]
49.1 | O=C(N1CC2(CC(n3cnc(C4CC4)n3)C2)C1)N1CC2(CN(Cc3ccn(CCC(F)(F)F)n3)C2)C1 [Example 321, [6-(3-cyclopropyl-1,2,4-triazol-1-yl)-2-azaspiro[3.3]heptan-2-yl]-[6-[[1-(3,3,3-trifluoropropyl)pyrazol-3-yl]methyl]-2,6-diazaspiro[3.3]heptan-2-yl]methanone]
1.82 | O=C(N1CC2(CC(Cc3n[nH]c(C4CC4)n3)C2)C1)N1CC2(CC(n3cnc(C4CC4)n3)C2)C1 [Example 304, [6-(3-cyclopropyl-1,2,4-triazol-1-yl)-2-azaspiro[3.3]heptan-2-yl]-[6-[(5-cyclopropyl-1H-1,2,4-triazol-3-yl)methyl]-2-azaspiro[3.3]heptan-2-yl]methanone]
22.9 | Cn1nnc(CN2CC3(C2)CN(C(=O)N2CC4(CC(n5cnc(C6CC6)n5)C4)C2)C3)c1C(F)(F)F [Example 244, [6-(3-cyclopropyl-1,2,4-triazol-1-yl)-2-azaspiro[3.3]heptan-2-yl]-[6-[[1-methyl-5-(trifluoromethyl)triazol-4-yl]methyl]-2,6-diazaspiro[3.3]heptan-2-yl]methanone]
5.6 | Cn1nc(C(F)(F)F)cc1CN1CC2(C1)CN(C(=O)N1CC3(CC(n4cnc(C5CC5)n4)C3)C1)C2 [Example 167, [6-(3-cyclopropyl-1,2,4-triazol-1-yl)-2-azaspiro[3.3]heptan-2-yl]-[6-[[2-methyl-5-(trifluoromethyl)pyrazol-3-yl]methyl]-2,6-diazaspiro[3.3]heptan-2-yl]methanone]
